Reference: PubChem BioAssay (NCI)
“And” between values parts separate entries of the source, which are not always exact repeats. Identical values can stand only once.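 Results reflect a 48-hour exposure of cells in 96-well plates to compound at five concentrations. At the GI50, growth is halved. At the TGI there is no net growth.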

Tests used:
Assay in all cases: growth of human tumour cells (NCI), 48 h
HCC-2998 colon = test system: HCC-2998 colon
786-0 renal = test system: 786-0 renal
A549 NSCLC = test system: A549 NSCLC
MALME-3M melanoma = test system: MALME-3M melanoma
SF-295 CNS = test system: SF-295 CNS
SR leukemia = test system: SR leukemia
RXF 393 renal = test system: RXF 393 renal
CAKI-1 renal = test system: CAKI-1 renal
MDA-MB-435 = test system: MDA-MB-435
MDA-MB-231 breast = test system: MDA-MB-231 breast

| Compound | TGI (HCC-2998 colon) | TGI (786-0 renal) | TGI (A549 NSCLC) | TGI (MALME-3M melanoma) | TGI (SF-295 CNS) | TGI (SR leukemia) | TGI (RXF 393 renal) | TGI (CAKI-1 renal) | GI50 (HCC-2998 colon) | GI50 (786-0 renal) | GI50 (A549 NSCLC) | GI50 (SF-295 CNS) | GI50 (MDA-MB-435) | TGI (MDA-MB-435) | GI50 (SR leukemia) | GI50 (MDA-MB-231 breast) | TGI (MDA-MB-231 breast) | GI50 (RXF 393 renal) | GI50 (CAKI-1 renal) | GI50 (MALME-3M melanoma) |
| --- | --- | --- | --- | --- | --- | --- | --- | --- | --- | --- | --- | --- | --- | --- | --- | --- | --- | --- | --- | --- |
| Oc1ccc2c3c1OC1C(=NN=C4CCC5(O)C6Cc7ccc(O)c8c7C5(CCN6CC5CC5)C4O8)CCC4(O)C(C2)N(CC2CC2)CCC314 (configuration not stated) | 52.7 µM | 66.2 µM | 42.3 µM | 34.5 µM | 32.6 µM | 80.4 µM | > 100 µM | > 100 µM |  |  |  |  |  |  |  |  |  |  |  |  |
| COc1ccc(NC(=O)COC(=O)c2cccc3c(=O)c4ccccc4[nH]c23)cc1 | > 100 µM | 53.1 µM | 53.2 µM | 50.2 µM | 40.2 µM | 28.9 µM | 35.5 µM | 67.9 µM |  |  |  |  |  |  |  |  |  |  |  |  |
| O=C(CC(O)c1ccncc1)c1ccccc1 (configuration not stated) | > 100 µM | > 100 µM | > 100 µM |  | > 100 µM | 47.6 µM | > 100 µM | > 100 µM | 35 µM | 30 µM | 29 µM | 27.7 µM | 20.8 µM | 56.5 µM | 18.9 µM | 16.7 µM | 54.6 µM | 21.3 µM | 23.1 µM |  |
| CCCCCCCCCCCCCC(=O)OC(/C=C/C(C)C)C(O)C(O)C(OC)C(=O)NC1CCCCNC1=O (configuration not stated) | 4.13 µM | 3.93 µM | 4.28 µM | 5.36 µM | 4.42 µM | 2.04 µM and 9.05 µM | 3.38 µM | 3.81 µM | 5.64 µM | 1.56 µM | 1.12 µM | 2.92 µM |  |  | 0.381 µM |  |  |  |  |  |
| Cn1cnc([N+](=O)[O-])c1Sc1nc2cccnc2s1 | 30.9 µM | 28.1 µM | > 100 µM | 22 µM | > 100 µM | 37.1 µM | 32.9 µM | 21 µM |  |  |  |  |  |  |  |  |  |  |  |  |
| CCCC(=O)Nc1cc([N+](=O)[O-])c([N+](=O)[O-])cc1OC |  | > 100 µM | 29.8 µM |  | 21.7 µM | 21.5 µM |  | 29.5 µM |  |  |  |  |  | 33.3 µM |  |  | 38.9 µM |  |  |  |
| CC1C=CC(C)C2(O)C(=O)NC(O)C12 (configuration not stated) | > 100 µM | > 100 µM | > 100 µM | > 100 µM |  | > 100 µM | > 100 µM | > 100 µM |  |  |  |  |  |  |  |  |  |  |  |  |
| Cn1c(=O)c2[nH]c(C3CC(=O)CC(c4nc5c([nH]4)c(=O)n(C)c(=O)n5C)N3)nc2n(C)c1=O (configuration not stated) |  | > 100 µM | > 100 µM | > 100 µM | > 100 µM | > 100 µM | > 100 µM | > 100 µM |  |  |  |  |  | > 100 µM |  |  | > 100 µM |  |  |  |
| CC1(C)N=C(N)N=C(N)N1c1ccc(OCC(=O)N2CCOCC2)c(Cl)c1 | > 100 µM | > 100 µM | > 100 µM | > 100 µM | > 100 µM | > 100 µM | > 100 µM |  | 9.78 µM | 20.2 µM | 0.271 µM | 0.561 µM | 0.565 µM | > 100 µM | 0.568 µM | > 100 µM | > 100 µM | 52.8 µM |  | 6.17 µM |
| COc1cc2c(cc1OCCCCCn1c(-c3ccco3)nc3ccccc31)N=C[C@@H]1CCCN1C2=O | 0.0193 µM | 1.3 µM | > 100 µM | < 0.01 µM | 0.0227 µM | < 0.01 µM |  | 0.0318 µM | < 0.01 µM | < 0.01 µM | < 0.01 µM | < 0.01 µM | < 0.01 µM | < 0.01 µM | < 0.01 µM | < 0.0141 µM | 0.224 µM |  | < 0.01 µM | < 0.01 µM |
| COc1cc(-n2cc(-c3ccc(F)cc3)[nH]c2=S)cc(OC)c1OC | > 100 µM | > 100 µM | > 100 µM | > 100 µM | > 100 µM |  | > 100 µM | > 100 µM | > 100 µM | 63.6 µM | > 100 µM | 47 µM | > 100 µM | > 100 µM |  | 36.4 µM | > 100 µM | 71.4 µM | 38.1 µM | > 100 µM |
| O=C(CC/C(CC(=O)c1ccc(Cl)cc1)=N/O)Nc1ccc(Cl)c(Cl)c1 |  | > 100 µM | > 100 µM | > 100 µM | > 100 µM | > 100 µM |  | > 100 µM |  |  |  |  |  |  |  |  |  |  |  |  |
| CCOC(=O)N[C@H]1CCc2cc(O)c(OC)c(OC)c2-c2ccc(SC)c(=O)cc21 | > 100 µM | > 59.9 µM | > 100 µM | > 100 µM | 0.0995 µM | > 100 µM | 0.0207 µM | > 65.3 µM |  |  |  |  |  |  |  |  |  |  |  |  |
| Oc1ccccc1Nc1nc2ccccc2c2occc12 | 10.3 µM | 19.2 µM | 27.5 µM |  | 16.1 µM | > 100 µM |  | 12.8 µM | 3.11 µM | 0.399 µM | 14.5 µM | 3.71 µM | 9.25 µM | 21.2 µM | 14.8 µM | 10.1 µM | 22.3 µM |  | 1.78 µM |  |
| COc1ccc2c(c1)C(=O)/C(=C/c1ccc([N+](=O)[O-])s1)O2 | 2.05 µM | 6.73 µM | 4.07 µM | 1.76 µM | 9.61 µM |  | 0.926 µM | > 100 µM | 0.514 µM | 1.47 µM | 1.06 µM | 2.95 µM | 0.314 µM | 1.76 µM |  | 0.203 µM | 0.474 µM | 0.284 µM | 2.19 µM | 0.451 µM |
| Cc1ccc(NC(=O)COC(=O)c2cccc3c(=O)c4ccccc4[nH]c23)cc1 | > 100 µM | > 100 µM | > 100 µM | > 100 µM | > 100 µM | 65.1 µM | 60.5 µM | > 100 µM |  |  |  |  |  |  |  |  |  |  |  |  |
| CO/N=C(\COc1ccc2c(c1)oc(=O)c1cc(OC)ccc12)c1ccc(F)cc1 | 72.7 µM | 28.7 µM | 94.8 µM | 84.6 µM | 87.5 µM |  | > 100 µM | 55 µM | 23.6 µM | 14.3 µM | 26.3 µM | 24.1 µM | 66.1 µM | > 100 µM |  | 15.8 µM | 42.8 µM | 35.1 µM | 19.1 µM | 26.7 µM |
| COc1ccc(N(C)c2nc(Cl)nc3ccn(C)c23)cc1 | > 100 µM | > 100 µM | > 100 µM | > 100 µM | > 100 µM | > 100 µM | > 100 µM |  | < 0.01 µM | < 0.01 µM | < 0.01 µM | < 0.01 µM |  |  | < 0.01 µM | < 0.01 µM | > 100 µM | < 0.01 µM |  | > 100 µM |
